Test results taken from patent US20060264493A1, “Tetracyclic pyrazole derivatives as kinase inhibitors, process for their preparation and pharmaceutical compositions comprising them” (priority 2003, published 2006).

Row | Structure (SMILES) | melting point [°C]
1 | Cl.Nc1ccc2[nH]c3c(c2c1)CCc1cn[nH]c1-3 | 237 to 241
2 | Cl.O=C(O)c1n[nH]c2c1CCc1c-2[nH]c2ccccc12 | > 260
3 | O=C(O)c1cccc2[nH]c3c(c12)CCc1c[nH]nc1-3 [Example 3, 2,4,5,10-Tetrahydropyrazolo[3,4-a]carbazole-6-carboxylic acid] | > 260
4 | O=C(O)c1ccc2c3c([nH]c2c1)-c1n[nH]cc1CC3 [Example 4, 2,4,5,10-Tetrahydropyrazolo[3,4-a]carbazole-8-carboxylic acid] | > 260
5 | CCOC(=O)c1[nH]nc2c1CCc1c-2[nH]c2ccccc12 [Example 5, Ethyl 2,4,5,10-tetrahydropyrazolo[3,4-a]carbazole-3-carboxylate] | 224 to 226
6 | O=C(O)c1ccc2[nH]c3c(c2c1)CCc1c[nH]nc1-3 [Example 2, 2,4,5,10-Tetrahydropyrazolo[3,4-a]carbazole-7-carboxylic acid] | > 260
7 | O=[N+]([O-])c1ccc2[nH]c3c(c2c1)CCc1c[nH]nc1-3 [Example 1, 7-Nitro-2,4,5,10-tetrahydropyrazolo[3,4-a]carbazole] | > 260
8 | CC(C)CC(=O)Nc1ccc2[nH]c3c(c2c1)CCc1cn[nH]c1-3 [Example 7, 3-Methyl-N-(1,4,5,10-tetrahydropyrazolo[3,4-a]carbazol-7-yl)butanamide] | 182 to 185

More lines, now with the values ahead:

Row | melting point [°C] | Structure (SMILES)
9 | 186 to 190 | CC(C)CNC(=O)c1ccc2[nH]c3c(c2c1)CCc1cn[nH]c1-3 [Example 9, N-isobutyl-1,4,5,10-tetrahydropyrazolo[3,4-a]carbazole-7-carboxamide]
10 | 176 to 180 | O=C(Nc1ccc2[nH]c3c(c2c1)CCc1cn[nH]c1-3)c1cccs1 [Example 8, N-(1,4,5,10-tetrahydropyrazolo[3,4-a]carbazol-7-yl) thiophene-2-carboxamide]
11 | 240 to 243 | COC(=O)c1ccc2c3c([nH]c2c1)-c1[nH]ncc1CC3 [Example 12, Methyl 1,4,5,10-tetrahydropyrazolo[3,4-a]carbazole-8-carboxylate]
12 | 214 to 216 | CCOC(=O)c1ccc2[nH]c3c(c2c1)CCc1cn[nH]c1-3 [Example 11, Ethyl 1,4,5,10-tetrahydropyrazolo[3,4-a]carbazole-7-carboxylate]
13 | 198 to 205 | CN1CCN(C(=O)c2ccc3[nH]c4c(c3c2)CCc2cn[nH]c2-4)CC1 [Example 10, 7-[(4-Methylpiperazin-1-yl)carbonyl]-1,4,5,10-tetrahydropyrazolo[3,4-a]carbazole]
